Assay results as given in ChEMBL document CHEMBL1201862, “PubChem BioAssay data set” (2004).
The source made the active and inactive calls.

Experiments:
[1] = molecular target: T1, Endoribonuclease toxin MazF (Escherichia coli K-12, UniProt P0AE70); assay: activation of MazEF endoribonuclease cleavage – biochemical, fluorescence, single-stranded RNA substrate, uHTS hits, dose response (AID 588481); format: functional
T1 sequence (P0AE70 whole entry): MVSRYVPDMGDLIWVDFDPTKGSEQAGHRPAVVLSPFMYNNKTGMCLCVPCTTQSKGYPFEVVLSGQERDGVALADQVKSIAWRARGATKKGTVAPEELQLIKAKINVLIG

[2] = test system: HeLa; assay: viability loss in HeLa cells – cell-based, 24 h, cherry-picked samples, cytotoxicity control, dose response (AID 504726); format: functional; conditions: Homo sapiens;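 also: potency for cytotoxicity as loss of luminescence signal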
[3] = molecular target: T1, Endoribonuclease toxin MazF; assay: substrate-only fluorescence increase artefacts – biochemical, single-stranded RNase substrate, counter-screen for MazEF activator project, dose response (AID 588502); format: functional
[4] = molecular target: UDP-galactopyranose mutase (Mycobacterium tuberculosis, UniProt P9WIQ1); assay: Inhibitors of Mycobacterium tuberculosis UDP-galactopyranose mutase (UGM) enzyme Measured in Biochemical System Using Plate Reader - 2105-02_Inhibitor_Dose_CherryPick_Activity. [Related pubchem assays (depositor defined):AID504439]
[5] = molecular target: T2, ORF 73 (Human herpesvirus 8, UniProt O40947); assay: KSHV LANA DNA-binding disruption – biochemical, fluorescence polarization, cherry-picked samples, dose response (AID 504725); parameters: species or system Human gammaherpesvirus 8;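 also: fluorescence polarization of a labeled DNA duplex reporting LANA DNA binding; potency is for inhibitors that block LANA binding to the DNA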
T2 sequence (O40947 whole entry): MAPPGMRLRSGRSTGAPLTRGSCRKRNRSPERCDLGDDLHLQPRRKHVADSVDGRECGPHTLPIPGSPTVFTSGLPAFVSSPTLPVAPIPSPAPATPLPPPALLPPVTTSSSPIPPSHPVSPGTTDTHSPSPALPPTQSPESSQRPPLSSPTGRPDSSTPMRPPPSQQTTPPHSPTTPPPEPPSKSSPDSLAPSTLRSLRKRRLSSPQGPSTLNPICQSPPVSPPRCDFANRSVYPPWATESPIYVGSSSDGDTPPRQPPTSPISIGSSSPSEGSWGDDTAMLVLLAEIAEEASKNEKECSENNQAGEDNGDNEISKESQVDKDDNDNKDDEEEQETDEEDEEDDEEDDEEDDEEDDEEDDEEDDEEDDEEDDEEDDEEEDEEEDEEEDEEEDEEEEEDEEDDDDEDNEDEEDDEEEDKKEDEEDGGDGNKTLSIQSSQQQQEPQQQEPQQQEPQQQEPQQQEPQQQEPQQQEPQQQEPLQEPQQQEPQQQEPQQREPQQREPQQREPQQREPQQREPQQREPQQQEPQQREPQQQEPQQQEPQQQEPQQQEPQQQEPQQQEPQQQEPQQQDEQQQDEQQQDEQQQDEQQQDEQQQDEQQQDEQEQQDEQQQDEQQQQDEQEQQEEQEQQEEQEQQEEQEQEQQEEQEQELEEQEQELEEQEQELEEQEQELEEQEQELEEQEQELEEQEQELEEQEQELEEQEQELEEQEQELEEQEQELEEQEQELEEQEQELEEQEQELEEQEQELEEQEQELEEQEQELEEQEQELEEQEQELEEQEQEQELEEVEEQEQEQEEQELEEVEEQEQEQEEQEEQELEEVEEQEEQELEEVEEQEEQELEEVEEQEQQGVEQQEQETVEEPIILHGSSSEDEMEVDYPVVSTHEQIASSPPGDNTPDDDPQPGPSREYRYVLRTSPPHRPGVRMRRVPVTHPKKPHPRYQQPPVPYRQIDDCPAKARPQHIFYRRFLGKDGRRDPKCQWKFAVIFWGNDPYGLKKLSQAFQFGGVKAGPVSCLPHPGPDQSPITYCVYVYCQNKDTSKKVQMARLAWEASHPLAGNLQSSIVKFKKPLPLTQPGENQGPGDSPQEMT

[6] = molecular target: Keap1/Nrf2 (Homo sapiens, UniProt Q14145); assay: disruptors of Keap1 binding to Nrf2 peptide – biochemical, fluorescence polarization, cherry-picked samples, dose response (AID 588683)
[7] = microbe, parasite or virus in culture; format: functional; conditions: Mycobacterium tuberculosis
[8] = molecular target: T3, Microphthalmia-associated transcription factor (Homo sapiens, UniProt O75030); assay: reducers of TRPM1 reporter luminescence, concentration series – cell-based, SK-MEL-5, cherry-picked, set 3, MITF inhibitor project, dose response (AID 493073); format: functional;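 also: SK-MEL-5 melanoma cells with luciferase driven by the MITF target TRPM1 promoter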
T3 sequence (O75030 whole entry): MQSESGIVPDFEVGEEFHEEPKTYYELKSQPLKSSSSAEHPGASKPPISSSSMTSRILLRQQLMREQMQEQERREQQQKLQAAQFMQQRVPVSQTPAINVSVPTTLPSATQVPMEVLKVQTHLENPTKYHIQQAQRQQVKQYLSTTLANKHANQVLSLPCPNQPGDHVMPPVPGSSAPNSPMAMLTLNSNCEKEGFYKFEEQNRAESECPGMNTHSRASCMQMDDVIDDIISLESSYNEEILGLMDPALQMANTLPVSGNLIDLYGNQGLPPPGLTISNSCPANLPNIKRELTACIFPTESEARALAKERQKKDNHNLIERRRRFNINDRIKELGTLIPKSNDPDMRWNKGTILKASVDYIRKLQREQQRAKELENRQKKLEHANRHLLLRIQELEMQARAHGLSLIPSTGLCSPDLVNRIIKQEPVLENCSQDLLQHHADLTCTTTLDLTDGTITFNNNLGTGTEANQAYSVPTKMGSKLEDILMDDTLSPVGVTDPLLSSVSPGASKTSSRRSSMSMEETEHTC

[9] = molecular target: T4, Histone-lysine N-methyltransferase NSD2 (Homo sapiens, UniProt O96028); format: biochemical
T4 sequence (O96028 whole entry): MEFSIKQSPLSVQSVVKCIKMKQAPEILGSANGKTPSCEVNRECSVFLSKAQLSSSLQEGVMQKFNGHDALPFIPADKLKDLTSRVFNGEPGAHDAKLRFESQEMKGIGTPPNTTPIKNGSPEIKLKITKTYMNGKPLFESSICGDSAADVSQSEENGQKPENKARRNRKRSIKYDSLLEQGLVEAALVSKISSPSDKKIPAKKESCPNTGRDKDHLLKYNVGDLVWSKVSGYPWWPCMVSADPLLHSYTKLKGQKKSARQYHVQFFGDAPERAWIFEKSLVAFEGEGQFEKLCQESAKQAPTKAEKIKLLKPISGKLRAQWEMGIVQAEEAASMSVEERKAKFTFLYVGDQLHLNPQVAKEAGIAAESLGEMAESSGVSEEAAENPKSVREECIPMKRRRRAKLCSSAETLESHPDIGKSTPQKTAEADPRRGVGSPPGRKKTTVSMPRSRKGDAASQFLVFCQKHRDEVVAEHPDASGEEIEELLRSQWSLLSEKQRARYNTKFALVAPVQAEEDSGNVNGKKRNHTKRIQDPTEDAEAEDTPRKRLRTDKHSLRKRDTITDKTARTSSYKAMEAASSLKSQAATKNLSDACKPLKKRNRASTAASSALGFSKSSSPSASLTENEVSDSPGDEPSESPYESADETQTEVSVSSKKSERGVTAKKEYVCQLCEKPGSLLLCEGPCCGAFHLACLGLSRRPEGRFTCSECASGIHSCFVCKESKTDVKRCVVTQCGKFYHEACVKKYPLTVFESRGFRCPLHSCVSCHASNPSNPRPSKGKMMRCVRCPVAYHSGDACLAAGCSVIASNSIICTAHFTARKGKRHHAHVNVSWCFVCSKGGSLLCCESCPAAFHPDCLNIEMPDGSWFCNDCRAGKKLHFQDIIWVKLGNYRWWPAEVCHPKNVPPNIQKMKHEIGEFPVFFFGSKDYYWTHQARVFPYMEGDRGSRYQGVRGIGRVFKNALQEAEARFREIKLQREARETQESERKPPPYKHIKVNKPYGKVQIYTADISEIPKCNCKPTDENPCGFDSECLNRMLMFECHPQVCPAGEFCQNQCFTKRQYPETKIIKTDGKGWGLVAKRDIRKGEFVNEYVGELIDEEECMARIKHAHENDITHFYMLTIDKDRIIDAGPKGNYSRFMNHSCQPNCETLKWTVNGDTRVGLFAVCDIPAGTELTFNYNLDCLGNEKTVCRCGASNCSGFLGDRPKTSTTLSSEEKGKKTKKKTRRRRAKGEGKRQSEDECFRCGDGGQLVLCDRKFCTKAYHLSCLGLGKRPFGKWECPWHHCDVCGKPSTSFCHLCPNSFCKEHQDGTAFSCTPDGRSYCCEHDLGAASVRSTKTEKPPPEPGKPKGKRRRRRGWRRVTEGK

[10] = test system: A-375; assay: MITF: Counter assay: A375 proliferation Measured in Cell-Based System Using Plate Reader - 2084-03_Inhibitor_Dose_DryPowder_Activity. [Related pubchem assays (depositor defined):AID488944]; format: functional; conditions: Homo sapiens
[11] = viability of PTEN-deleted HCT116 cells – cell-based, HCT116 PTEN knockout, dose response (AID 1047); format: functional;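 also: HCT116 colon tumor cells with PTEN knocked out; cells exposed to compound for 60 hours before readout; potency for loss of cell viability measured by luminescence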
[12] = test system: HEK293; assay: cells; conditions: Homo sapiens
[13] = test system: HEK293; assay: cells; conditions: Homo sapiens; remark: listed apart in the source
[14] = viability of HCT116 lacking mutant beta-catenin – cell-based, human colon tumor, dose response (AID 1045); format: functional;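 also: HCT116 colon tumor cells with beta catenin knocked out; cells exposed to compound for 60 hours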
[15] = test system: HEK293; assay: SAR Analysis of small molecule inhibitors of T-cell specific antigen receptor-induced NF-kB activation in a HEK-293T cell line using a luminescence assay - Set 2. [Related pubchem assays (depositor defined):AID435003, AID435012, AID489026]; format: functional, cell-based; conditions: Homo sapiens
[16] = test system: HEK293; assay: HEK293T cell viability loss, resazurin readout – resazurin fluorescence, cytotoxicity control for NF-kB activator project, SAR follow-up (AID 493251); format: functional, cell-based; conditions: Homo sapiens
[17] = test system: Jurkat; assay: SAR Analysis of small molecule inhibitors of T-cell specific antigen receptor-induced NF-kB activation in a Jurkat cell line using a luminescence assay - Set 2. [Related pubchem assays (depositor defined):AID435003, AID435012, AID465]; format: functional, cell-based; conditions: Homo sapiens
[18] = test system: HEK293; assay: SAR Analysis of small molecule inhibitors of B-cell specific antigen receptor-induced NF-kB activation in a HEK-293T cell line using a luminescence assay - Set 2. [Related pubchem assays (depositor defined):AID435022, AID435025, AID489021]; format: functional, cell-based; conditions: Homo sapiens
[19] = test system: Jurkat; assay: SAR Analysis of small molecule inhibitors of […] specific antigen receptor-induced NF-kB activation in a Jurkat cell line using a luminescence assay - Set 3. [Related pubchem assays (depositor defined):AID435022, AID435025, AID465]; format: functional, cell-based; conditions: Homo sapiens
[20] = test system: Jurkat; assay: blockers of NF-kB activation in T cells – Jurkat, luciferase reporter, luminescence, B- and T-cell, dose response (AID 489004); format: functional, cell-based; conditions: Homo sapiens;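 also: NF-kB luciferase reporter Jurkat cells stimulated with PMA plus ionomycin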
[21] = test system: INS1; assay: INS-1E survival protection against cytokine death – cell-based, luminescence, retest, dose response (AID 449756); format: functional; conditions: Rattus norvegicus;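 also: cell death triggered by IL-1 beta plus TNF-alpha plus IFN-gamma mixture; protective hits raise ATP signal compared with cytokine alone wells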
[22] = molecular target: Beta-galactosidase (Escherichia coli, UniProt Q8VNN2); assay: PubChem AID 485352; format: functional
[23] = HEK-293T viability loss, compound-treated – cell-based, uHTS hits, cytotoxicity control for B/T-cell NF-kB inhibitor project, dose response (AID 489019); format: functional;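 also: IC50 reflects cytotoxicity as loss of cell viability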
[24] = molecular target: E3 ubiquitin-protein ligase Mdm2 (Homo sapiens, UniProt Q00987); assay: MDM2-luc reporter signal enhancers, multi-concentration potency testing, MDM2 ubiquitin-protein ligase inhibitor program, whole-cell format, luminescence detection, 384-well microplate (AID 1394); format: functional;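 also: MDM2 E3 inhibitors raise luminescence so EC50 is for signal enhancement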
[25] = molecular target: T5, Type-1 angiotensin II receptor (Homo sapiens, UniProt P30556); assay: antagonism of angiotensin II type 1 receptor – cell-based, uHTS hits, selectivity assay for APJ receptor antagonist project, dose response (AID 463214); format: functional;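 also: antagonist potency against angiotensin II stimulated AT1 response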
T5 sequence (P30556 whole entry): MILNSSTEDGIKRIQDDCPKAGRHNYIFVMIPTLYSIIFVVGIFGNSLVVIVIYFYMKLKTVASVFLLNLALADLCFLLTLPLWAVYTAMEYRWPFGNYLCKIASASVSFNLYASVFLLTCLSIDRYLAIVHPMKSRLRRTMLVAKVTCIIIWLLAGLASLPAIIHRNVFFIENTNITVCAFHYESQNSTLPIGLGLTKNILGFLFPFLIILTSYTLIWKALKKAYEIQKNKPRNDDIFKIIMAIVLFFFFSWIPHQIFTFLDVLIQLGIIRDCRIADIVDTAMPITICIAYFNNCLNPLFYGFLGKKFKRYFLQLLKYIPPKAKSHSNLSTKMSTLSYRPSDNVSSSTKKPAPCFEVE

[26] = molecular target: G-protein coupled receptor 55 (Homo sapiens, UniProt Q9Y2T6); assay: inhibition of LPI-stimulated GPR55 beta-arrestin translocation – imaging, U2OS, beta-arrestin-GFP, LPI agonist, primary screen (AID 2013); format: functional;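 also: antagonist potency measured as reduced agonist-driven arrestin aggregation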
[27] = molecular target: Paired box protein Pax-8 (Homo sapiens, UniProt Q06710); assay: PAX8 transcriptional activity inhibition in RMG-I – RMG-I cells, luciferase, cherry-pick, dose response (AID 687027); format: functional, cell-based;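 also: luciferase reporter driven by Pax8 target thyroperoxidase promoter measured by SteadyGlo luminescence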
Paired box protein Pax-8, sequence (Q06710 whole entry): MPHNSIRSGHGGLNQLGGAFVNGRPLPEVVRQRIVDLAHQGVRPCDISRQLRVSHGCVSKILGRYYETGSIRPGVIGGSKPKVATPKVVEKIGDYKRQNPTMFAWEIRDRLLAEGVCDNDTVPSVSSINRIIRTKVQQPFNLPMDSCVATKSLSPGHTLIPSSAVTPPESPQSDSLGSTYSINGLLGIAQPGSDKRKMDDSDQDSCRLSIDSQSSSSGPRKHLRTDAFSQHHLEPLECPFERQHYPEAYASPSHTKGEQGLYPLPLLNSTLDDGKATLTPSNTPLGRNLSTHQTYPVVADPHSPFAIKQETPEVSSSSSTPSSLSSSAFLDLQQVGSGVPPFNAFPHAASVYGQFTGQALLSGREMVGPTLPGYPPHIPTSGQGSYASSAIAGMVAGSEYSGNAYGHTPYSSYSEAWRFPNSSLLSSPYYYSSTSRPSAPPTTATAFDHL

E3 ubiquitin-protein ligase Mdm2, sequence (Q00987 whole entry): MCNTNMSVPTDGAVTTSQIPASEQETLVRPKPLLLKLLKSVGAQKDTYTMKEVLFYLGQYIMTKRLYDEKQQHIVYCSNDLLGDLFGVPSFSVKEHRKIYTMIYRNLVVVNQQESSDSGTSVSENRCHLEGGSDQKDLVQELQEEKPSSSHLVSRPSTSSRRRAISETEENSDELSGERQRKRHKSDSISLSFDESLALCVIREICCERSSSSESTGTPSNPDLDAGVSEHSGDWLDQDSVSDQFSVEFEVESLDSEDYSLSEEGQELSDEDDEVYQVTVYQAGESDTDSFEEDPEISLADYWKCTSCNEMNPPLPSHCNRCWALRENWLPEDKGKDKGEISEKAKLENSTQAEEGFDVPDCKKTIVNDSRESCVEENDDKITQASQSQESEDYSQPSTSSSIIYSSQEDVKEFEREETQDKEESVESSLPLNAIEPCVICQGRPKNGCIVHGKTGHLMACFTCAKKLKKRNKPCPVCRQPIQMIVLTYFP
G-protein coupled receptor 55, sequence (Q9Y2T6 whole entry): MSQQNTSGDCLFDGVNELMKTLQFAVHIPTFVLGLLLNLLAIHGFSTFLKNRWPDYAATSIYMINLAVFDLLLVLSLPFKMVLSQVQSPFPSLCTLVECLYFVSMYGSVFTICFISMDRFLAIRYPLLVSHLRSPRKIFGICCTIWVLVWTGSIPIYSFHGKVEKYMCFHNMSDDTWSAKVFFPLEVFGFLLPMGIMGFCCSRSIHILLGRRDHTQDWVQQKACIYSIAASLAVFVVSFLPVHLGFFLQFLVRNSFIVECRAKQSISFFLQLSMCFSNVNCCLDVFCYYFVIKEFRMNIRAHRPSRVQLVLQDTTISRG
Keap1/Nrf2, sequence (Q16236 whole entry): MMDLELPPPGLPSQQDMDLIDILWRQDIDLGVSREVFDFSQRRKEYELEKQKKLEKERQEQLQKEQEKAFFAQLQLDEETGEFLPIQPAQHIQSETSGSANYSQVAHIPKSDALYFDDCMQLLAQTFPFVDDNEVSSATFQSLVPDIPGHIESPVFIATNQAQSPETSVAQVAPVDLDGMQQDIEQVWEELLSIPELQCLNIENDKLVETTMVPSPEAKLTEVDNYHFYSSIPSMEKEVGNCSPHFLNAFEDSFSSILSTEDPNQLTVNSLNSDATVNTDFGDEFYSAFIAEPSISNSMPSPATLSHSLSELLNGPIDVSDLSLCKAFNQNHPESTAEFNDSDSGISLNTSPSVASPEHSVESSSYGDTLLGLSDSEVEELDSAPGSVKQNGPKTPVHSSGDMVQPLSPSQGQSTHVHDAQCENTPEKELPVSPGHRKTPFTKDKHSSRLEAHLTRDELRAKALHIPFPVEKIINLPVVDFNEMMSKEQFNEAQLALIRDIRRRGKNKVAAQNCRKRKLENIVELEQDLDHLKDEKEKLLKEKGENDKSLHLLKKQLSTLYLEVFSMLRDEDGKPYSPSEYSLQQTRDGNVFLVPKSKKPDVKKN
Keap1/Nrf2, sequence (Q14145 whole entry): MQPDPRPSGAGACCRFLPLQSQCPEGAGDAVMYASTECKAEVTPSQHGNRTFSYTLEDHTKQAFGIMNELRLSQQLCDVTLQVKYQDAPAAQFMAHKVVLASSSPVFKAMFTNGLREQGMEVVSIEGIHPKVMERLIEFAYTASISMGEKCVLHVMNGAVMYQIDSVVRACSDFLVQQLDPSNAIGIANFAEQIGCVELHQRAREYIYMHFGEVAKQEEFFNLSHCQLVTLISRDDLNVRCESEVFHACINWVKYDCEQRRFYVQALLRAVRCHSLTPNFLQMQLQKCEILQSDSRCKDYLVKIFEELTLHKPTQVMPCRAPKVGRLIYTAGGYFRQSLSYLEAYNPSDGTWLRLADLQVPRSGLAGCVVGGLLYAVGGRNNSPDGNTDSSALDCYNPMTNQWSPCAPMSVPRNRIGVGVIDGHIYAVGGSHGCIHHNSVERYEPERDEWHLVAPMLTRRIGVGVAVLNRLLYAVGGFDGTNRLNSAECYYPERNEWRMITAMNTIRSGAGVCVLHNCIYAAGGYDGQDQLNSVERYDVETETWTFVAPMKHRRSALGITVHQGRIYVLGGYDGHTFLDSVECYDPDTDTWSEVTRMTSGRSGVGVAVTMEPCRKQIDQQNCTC
UDP-galactopyranose mutase, sequence (P9WIQ1 whole entry): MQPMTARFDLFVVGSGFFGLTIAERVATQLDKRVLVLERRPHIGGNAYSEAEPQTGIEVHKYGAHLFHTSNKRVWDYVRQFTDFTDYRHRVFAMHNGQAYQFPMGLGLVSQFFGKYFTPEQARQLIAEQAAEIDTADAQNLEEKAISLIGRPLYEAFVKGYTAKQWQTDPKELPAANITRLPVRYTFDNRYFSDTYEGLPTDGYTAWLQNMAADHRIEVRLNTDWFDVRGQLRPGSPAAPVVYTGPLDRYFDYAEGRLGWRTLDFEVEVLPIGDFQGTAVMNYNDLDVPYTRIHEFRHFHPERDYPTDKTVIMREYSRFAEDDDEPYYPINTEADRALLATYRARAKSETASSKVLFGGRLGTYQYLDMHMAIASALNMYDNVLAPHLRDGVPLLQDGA
Beta-galactosidase, sequence (Q8VNN2 whole entry): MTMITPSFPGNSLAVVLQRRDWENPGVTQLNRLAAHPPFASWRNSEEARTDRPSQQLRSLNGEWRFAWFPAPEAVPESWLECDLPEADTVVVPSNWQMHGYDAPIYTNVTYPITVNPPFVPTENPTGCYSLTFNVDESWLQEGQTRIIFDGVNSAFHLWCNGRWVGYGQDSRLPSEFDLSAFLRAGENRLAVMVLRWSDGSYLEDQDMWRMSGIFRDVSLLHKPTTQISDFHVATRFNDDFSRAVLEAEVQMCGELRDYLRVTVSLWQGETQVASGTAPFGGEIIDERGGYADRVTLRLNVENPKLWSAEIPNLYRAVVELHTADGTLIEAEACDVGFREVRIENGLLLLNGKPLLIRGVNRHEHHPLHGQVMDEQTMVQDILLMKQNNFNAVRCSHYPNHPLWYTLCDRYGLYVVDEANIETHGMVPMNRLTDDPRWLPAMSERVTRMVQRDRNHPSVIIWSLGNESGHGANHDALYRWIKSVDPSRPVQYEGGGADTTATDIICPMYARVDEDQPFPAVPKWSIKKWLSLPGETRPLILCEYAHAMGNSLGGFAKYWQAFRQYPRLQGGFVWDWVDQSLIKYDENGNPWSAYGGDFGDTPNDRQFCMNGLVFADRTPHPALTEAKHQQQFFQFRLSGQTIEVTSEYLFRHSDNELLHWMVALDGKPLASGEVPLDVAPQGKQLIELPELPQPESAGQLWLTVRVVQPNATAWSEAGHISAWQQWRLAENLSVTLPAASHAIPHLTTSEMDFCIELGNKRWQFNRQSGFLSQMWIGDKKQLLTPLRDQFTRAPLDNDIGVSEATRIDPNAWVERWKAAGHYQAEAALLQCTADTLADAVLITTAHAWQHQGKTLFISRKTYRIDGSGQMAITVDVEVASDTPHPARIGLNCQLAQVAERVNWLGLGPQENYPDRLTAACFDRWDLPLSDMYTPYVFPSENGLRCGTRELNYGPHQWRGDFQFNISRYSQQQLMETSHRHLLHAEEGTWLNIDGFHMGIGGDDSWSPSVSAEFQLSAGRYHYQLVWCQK

Cn1nc(-c2ccccc2)c2nc3ccccc3nc21
EC50 [1]: > 99 µM (inactive)
AC50 [2]: 44.5 µM (active)
EC50 [3]: > 99 µM (inactive)
AC50 [4]: 11.3 µM (active)
AC50 [5]: 42.5 µM (active)
AC50 [6]: 14 µM (active)

CC1C/C(=C\c2cccnc2)C(=O)/C(=C/c2cccnc2)C1 (stereo not drawn)
CC50 [7]: 15.3 µM (active)
AC50 [8]: 2.66 µM (active)
AC50 [9]: 19 µM (active)
AC50 [10]: 21.5 µM (active)

CC1=CC(C)(C)Nc2ccc(OC(=O)CCN3C(=O)c4ccccc4C3=O)cc21
EC50 [11]: 10.8 µM (active)
EC50 [12]: > 59.6 µM (inactive)
EC50 [13]: > 59.6 µM (inactive)
EC50 [14]: 6.3 µM (active)

CCOc1ccc(-c2nc(CS(=O)(=O)CC(=O)NCc3ccc(F)cc3)c(C)o2)cc1
IC50 [15]: > 80 µM (inactive)
IC50 [16]: > 80 µM (inactive)
IC50 [17]: > 79 µM (inactive)

CC(C)(C)c1ccc(-c2noc(CCC(=O)NC3CCCCC3)n2)cc1
IC50 [18]: 2.68 µM (active)
IC50 [19]: 19.9 µM (active)
IC50 [16]: > 80 µM (inactive)

C=C1C(=O)O[C@@H]2C[C@@H](C)[C@@H]3C=CC(=O)[C@@]3(C)[C@@H](OC(C)=O)[C@H]12 [ANGUSTIBALIN]
IC50 [20]: 990 nM (active)
AC50 [21]: 2.13 µM (active)
EC50 [22]: > 40 µM (inactive)
IC50 [23]: > 80 µM (inactive)
EC50 [24]: 7.68 µM (not active)
IC50 [25]: 22 µM (not active)
IC50 [26]: 4.49 µM (active)
AC50 [27]: 742 nM (active)
